From patent publication US11357862B2, “Peptide-conjugated nanoparticles for targeting, imaging, and treatment of prostate cancer” (Academia Sinica, priority 2016, dated 2022) come the findings set out here.

The subject of data set [1] is PC3-Luc orthotopic tumors. Kind of data set: Orthotopic implantation and therapeutic study. The data set is classed as in vivo, SCID mice. The following applies: doxorubicin 1 mg/kg, vinorelbine 2 mg/kg i.v. twice a week, docetaxel 5 mg/kg i.p. once a week, 4 weeks. How it is done: PC3 cells were transfected with Lenti-Luc virus (lentivirus containing the luciferase gene), and a stable PC3-Luc cell line was selected by puromycin screening. PC3-Luc cells (5×10^5 cells in 20 μl PBS per mouse) were orthotopically transplanted into the dorsal lobe of the prostate of SCID mice after anaesthesia with Avertin at a dose of 250 mg/kg. Seven days later, all mice bearing tumors were randomly divided into five groups (n=8 per group) based on photon flux indices detected using Xenogen IVIS® 200 Luminal Image. Tumor-bearing mice were treated with different formulations of anti-cancer drugs or PBS. Tumor development was recorded every 7 days. The body weights and survival rates were measured.
Mice were injected with vehicle (PBS), docetaxel (5 mg/kg), liposomal drugs, or targeting liposomal drugs (doxorubicin 1 mg/kg; vinorelbine 2 mg/kg).

Data set [2] can be described thus: Pharmacokinetics of doxorubicin formulations. The format is in vivo, NOD/SCID mice. The note with it: 2 mg doxorubicin/kg, tail vein.
Procedure: Blood samples were drawn at selected time points, and quantities of doxorubicin were analyzed.
The test system of data set [3] is DU145 prostate cancer xenografts. Kind of data set: In vivo phage homing and peptide competitive inhibition. The following applies: co-injection with PC204. Details: species or system SCID mice. How it is done: (§1) SCID mice were injected s.c. with 5×10^6 prostate cancer cells. Once the prostate cancer xenografts reached a suitable size (about 200˜300 mm^3), the mice were injected i.v. with 2×10^9 pfu phages in the presence or absence of 100 μg synthetic peptides. After ten minutes, the mice were sacrificed and perfused with 50 ml PBS to remove unbound phages. Selected organs and xenograft tumors were removed, and the phage titer recovered by E. coli strain ER2738 was measured using IPTG/X-Gal spray. Partial organs and tumors were embedded using optimal cutting temperature compound (O.C.T.) to prepare sections for immunohistochemical staining.

Data set [4] relates to PC3 prostate cancer xenografts. Described as above. Details: species or system SCID mice. The following applies: co-injection with PC204. How it is done:
as §1

In data set [5] the test system is PC3 prostate cancer xenografts. Kind of data set: Immunohistochemical localization of phages after i.v. injection. The data set is classed as in vivo, SCID mice. The following applies: co-injected with PC204. How it is done: as §1
The tissue samples from in vivo phage homing experiments were embedded in frozen blocks. Phage distribution in each tissue was assessed by first removing O.C.T. with cold PBS, and then fixing the frozen sections with 4% paraformaldehyde for 10 min. The sections were incubated with 1% BSA for 30 min to block non-specific binding. After washing, the sections were incubated with mouse anti-M13 antibodies at a dilution of 1:250 for 1 hour, followed by treatment with polymer-based SUPER SENSITIVE™ IC detection system. In brief, the sections were incubated with SUPER […]™ reagent for 20 min and poly-HRP reagent for 30 min. DAB was used as a chromogen to visualize peroxidase activity, and the reaction was stopped by the addition of PBS. […]

In data set [1], `CC(=O)O[C@@]12CO[C@@H]1C[C@H](O)[C@@]1(C)C(=O)[C@H](O)C3=C(C)[C@@H](OC(=O)[C@H](O)[C@@H](NC(=O)OC(C)(C)C)c4ccccc4)C[C@@](O)([C@@H](OC(=O)c4ccccc4)[C@H]21)C3(C)C` [docetaxel] came in with a median survival times of 58 days.

In the case of `COc1cccc2c1C(=O)c1c(O)c3c(c(O)c1C2=O)C[C@@](O)(C(=O)CO)C[C@@H]3O[C@H]1C[C@H](N)[C@H](O)[C@H](C)O1` [FD, doxorubicin], in data set [2], the “plasma pharmacokinetic profile of doxorubicin” value is recorded as “poor pharmacokinetic profile”.

Regarding “SP204: synthetic targeting peptide KQFSALPFNFYT, SEQ ID NO: 8, the ligand displayed on phage PC204 (Phage clone No. 204 displayed peptide sequence)”, the “inhibition of PC204 binding to tumor tissue by co-injected peptide” value in data set [3] came out at 2.87 fold; in data set [4], 5.2 fold. Further, in data set [5], the “phage immunoreactivity in tumor tissue on co-injection of PC204 with peptide” value was “no immunoreactivity was observed”.
